Results taken from the supplement of paper PMC8372320.

Assay: photocatalytic hydrogen evolution rate (per 5 mg catalyst); higher = more photocatalytic H2 evolution; extreme values may be limits of the assay
Conditions: catalyst mass (mg): 5; Pt cocatalyst (wt%): 3; sacrificial medium: triethylamine/methanol/water 1:1:1
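Also: aromatic molecules in triethylamine/methanol/water with Pt photoreduced in situ, irradiated 3 h under a 1 sun AM 1.5G solar simulator (350–1000 nm), H2 quantified by headspace gas chromatography; listed molecule itself used as the photocatalyst at 5 mg per vial.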

O=Cc1ccc2ccccc2c1
photocatalytic hydrogen evolution rate: 9.93 µmol/h

O=C1c2cccc([N+](=O)[O-])c2C(=O)c2c1cccc2[N+](=O)[O-]
photocatalytic hydrogen evolution rate: 0 µmol/h

CC(C)(C)c1ccc(C(=O)CC#N)cc1
photocatalytic hydrogen evolution rate: 0.0435 µmol/h

O=c1c(Br)c[nH]cc1Br
photocatalytic hydrogen evolution rate: 0.000384 µmol/h

Cc1ccc(-c2ccc(C)cc2)cc1
photocatalytic hydrogen evolution rate: 0 µmol/h

N#Cc1cc(N)cc(F)c1
photocatalytic hydrogen evolution rate: 0 µmol/h

O=C1C=CC(=O)c2ccccc21
photocatalytic hydrogen evolution rate: 0 µmol/h

N#Cc1cccc(N)c1
photocatalytic hydrogen evolution rate: 0 µmol/h

N#Cc1cccc(C#N)n1
photocatalytic hydrogen evolution rate: 0 µmol/h

Nc1ccc(-c2nc(-c3ccc(N)cc3)nc(-c3ccc(N)cc3)n2)cc1
photocatalytic hydrogen evolution rate: 0 µmol/h

c1cncc(-c2nc(-c3cccnc3)nc(-c3cccnc3)n2)c1
photocatalytic hydrogen evolution rate: 0.168 µmol/h

c1ccc(N(c2ccccc2)c2ccccc2)cc1
photocatalytic hydrogen evolution rate: 0 µmol/h

COc1ccc2c3c(cccc13)C(=O)N(C)C2=O
photocatalytic hydrogen evolution rate: 1.91 µmol/h

O=Cc1ccc(S(=O)(=O)c2ccccc2)cc1
photocatalytic hydrogen evolution rate: 0.0425 µmol/h

COC(=O)c1ccc(B(O)O)cc1
photocatalytic hydrogen evolution rate: 0.0394 µmol/h

CC1(C)OB(c2ccc(-n3c4ccccc4c4ccccc43)cc2)OC1(C)C
photocatalytic hydrogen evolution rate: 0.135 µmol/h

N#Cc1ccc(-c2ccc(N)nc2)cc1
photocatalytic hydrogen evolution rate: 0.0826 µmol/h

O=C(O)Cc1ccc(Br)cc1Br
photocatalytic hydrogen evolution rate: 0 µmol/h

OB(O)c1cccc(B(O)O)c1
photocatalytic hydrogen evolution rate: 0 µmol/h

Brc1ccc(C#Cc2ccc(Br)cc2)cc1
photocatalytic hydrogen evolution rate: 0 µmol/h

c1ccc2c(c1)[nH]c1ccccc12
photocatalytic hydrogen evolution rate: 0 µmol/h

Brc1cnc(Br)s1
photocatalytic hydrogen evolution rate: 0 µmol/h

O=Cc1ccc(O)c(O)c1O
photocatalytic hydrogen evolution rate: 0 µmol/h

N#Cc1ccc(/C=C/c2ccc(/C=C/c3ccc(C#N)cc3)cc2)cc1
photocatalytic hydrogen evolution rate: 0.411 µmol/h

C=CS(=O)(=O)c1ccccc1
photocatalytic hydrogen evolution rate: 0 µmol/h

O=C(c1ccc(O)cc1)c1ccc(O)cc1
photocatalytic hydrogen evolution rate: 0 µmol/h

O=Cc1c(O)c(C=O)c(O)c(C=O)c1O
photocatalytic hydrogen evolution rate: 1.03 µmol/h

CC1(C)OB(c2cc3ccc4cc(B5OC(C)(C)C(C)(C)O5)cc5ccc(c2)c3c45)OC1(C)C
photocatalytic hydrogen evolution rate: 0.0847 µmol/h

O=c1c2ccccc2oc2ccccc12
photocatalytic hydrogen evolution rate: 7.48 µmol/h

O=Cc1ccc(O)c(O)c1
photocatalytic hydrogen evolution rate: 0 µmol/h

C#Cc1ccccc1C#N
photocatalytic hydrogen evolution rate: 0 µmol/h

Brc1ccccc1-c1ccccc1Br
photocatalytic hydrogen evolution rate: 0 µmol/h

OC1(c2ccccc2)c2cc(Br)ccc2-c2ccc(Br)cc21
photocatalytic hydrogen evolution rate: 0.101 µmol/h

CC(C)(C)c1cc2ccc3c(Br)cc(Br)c4ccc(c1)c2c34
photocatalytic hydrogen evolution rate: 0.121 µmol/h

O=Cc1ccc(C(=O)O)cc1
photocatalytic hydrogen evolution rate: 2.34 µmol/h

Cc1[nH]c(C=O)cc1C#N
photocatalytic hydrogen evolution rate: 0 µmol/h

Nc1nc(N)nc(N)n1
photocatalytic hydrogen evolution rate: 0 µmol/h

Brc1ccc(-c2ccc(Br)s2)s1
photocatalytic hydrogen evolution rate: 0 µmol/h

O=Cc1cc(Br)nc(Br)c1
photocatalytic hydrogen evolution rate: 0.107 µmol/h

O=C(O)c1ccc(-c2c3nc(c(-c4ccc(C(=O)O)cc4)c4ccc([nH]4)c(-c4ccc(C(=O)O)cc4)c4nc(c(-c5ccc(C(=O)O)cc5)c5ccc2[nH]5)C=C4)C=C3)cc1
photocatalytic hydrogen evolution rate: 2.56 µmol/h

O=C(c1ccc(Br)cc1)c1ccc(Br)cc1
photocatalytic hydrogen evolution rate: 6.77 µmol/h

O=C(O)c1cc(C(=O)O)cc(-c2ccc(-c3cc(C(=O)O)cc(C(=O)O)c3)cc2)c1
photocatalytic hydrogen evolution rate: 0.0522 µmol/h

O=C1c2cc(Br)ccc2-c2ccc(Br)cc21
photocatalytic hydrogen evolution rate: 0.214 µmol/h

OB(O)c1ccc(B(O)O)cc1
photocatalytic hydrogen evolution rate: 0.053 µmol/h

c1ccc(C(=C(c2ccccc2)c2ccccc2)c2ccccc2)cc1
photocatalytic hydrogen evolution rate: 0 µmol/h

N#Cc1ccc(C=O)cc1F
photocatalytic hydrogen evolution rate: 0.104 µmol/h

O=C1C(Cl)=C(Cl)C(=O)C(Cl)=C1Cl
photocatalytic hydrogen evolution rate: 0 µmol/h

Cc1cc2c(cc1N)S(=O)(=O)c1cc(N)c(C)cc1-2
photocatalytic hydrogen evolution rate: 0 µmol/h

N#Cc1cncc(Br)n1
photocatalytic hydrogen evolution rate: 0.0873 µmol/h

O=Cc1ccc(-c2ccccc2)cc1
photocatalytic hydrogen evolution rate: 4.67 µmol/h

COc1cc(Br)ccc1C=O
photocatalytic hydrogen evolution rate: 12.3 µmol/h

NC(=O)c1ccc(B(O)O)cc1
photocatalytic hydrogen evolution rate: 0 µmol/h

c1cc2ccc3ccc4ccc5ccc6ccc1c1c2c3c4c5c61
photocatalytic hydrogen evolution rate: 0 µmol/h

O=Cc1ccc(-c2ccc(F)cc2)cc1
photocatalytic hydrogen evolution rate: 5.25 µmol/h

O=Cc1ccc(B(O)O)cc1
photocatalytic hydrogen evolution rate: 0.0401 µmol/h

O=Cc1ccc(Cl)cc1
photocatalytic hydrogen evolution rate: 0.964 µmol/h

N#Cc1cc(Br)cc(Br)c1O
photocatalytic hydrogen evolution rate: 0.31 µmol/h

O=Cc1ccc2c(c1)c1ccccc1n2-c1ccccc1
photocatalytic hydrogen evolution rate: 2.51 µmol/h

Brc1ccc2ccccc2c1
photocatalytic hydrogen evolution rate: 0.0179 µmol/h

COc1cc(Br)c(OC)cc1Br
photocatalytic hydrogen evolution rate: 0 µmol/h

Cc1cc(C#N)ccc1C#N
photocatalytic hydrogen evolution rate: 0 µmol/h

Brc1cncc(Br)c1
photocatalytic hydrogen evolution rate: 0 µmol/h

C#Cc1ccc(C=O)cc1
photocatalytic hydrogen evolution rate: 0 µmol/h

O=Cc1ccc(C(=O)O)cc1O
photocatalytic hydrogen evolution rate: 8.19 µmol/h

Cc1ccc(N)cc1C#N
photocatalytic hydrogen evolution rate: 0 µmol/h

c1cc(-c2nc(-c3ccncc3)nc(-c3ccncc3)n2)ccn1
photocatalytic hydrogen evolution rate: 0 µmol/h

O=Cc1c2ccccc2c(C=O)c2ccccc12
photocatalytic hydrogen evolution rate: 2.97 µmol/h

c1ccc2c(c1)Cc1cc3c(cc1-2)Cc1ccccc1-3
photocatalytic hydrogen evolution rate: 0.136 µmol/h

O=C(c1ccccc1)c1cc(C(=O)c2ccccc2)cc(C(=O)c2ccccc2)c1
photocatalytic hydrogen evolution rate: 14.2 µmol/h

N#CCc1cccc(CC#N)c1
photocatalytic hydrogen evolution rate: 0 µmol/h

Nc1ccc(-c2ccc(N)c(O)c2)cc1O
photocatalytic hydrogen evolution rate: 0.104 µmol/h

O=[N+]([O-])c1ccc(C(=C(c2ccc([N+](=O)[O-])cc2)c2ccc([N+](=O)[O-])cc2)c2ccc([N+](=O)[O-])cc2)cc1
photocatalytic hydrogen evolution rate: 0 µmol/h

c1ccc(Nc2ccc(Nc3ccccc3)cc2)cc1
photocatalytic hydrogen evolution rate: 0 µmol/h

N#Cc1ccc(-c2ccccc2)cc1
photocatalytic hydrogen evolution rate: 0 µmol/h

Brc1ccc2[nH]c3ccc(Br)cc3c2c1
photocatalytic hydrogen evolution rate: 0 µmol/h

N#Cc1ccnc(Br)c1
photocatalytic hydrogen evolution rate: 0.0187 µmol/h

Nc1ccc2ccc3cccc4ccc1c2c34
photocatalytic hydrogen evolution rate: 0 µmol/h

c1ccc2nc3ccccc3nc2c1
photocatalytic hydrogen evolution rate: 0 µmol/h

FC(F)(F)c1cc(Br)ccc1Br
photocatalytic hydrogen evolution rate: 0 µmol/h

O=C1C(=O)c2cc(Br)ccc2-c2ccc(Br)cc21
photocatalytic hydrogen evolution rate: 0 µmol/h

O=Cc1ccc(C=O)cc1
photocatalytic hydrogen evolution rate: 0.0145 µmol/h

O=c1c2ccccc2c(=O)c2cc3c(=O)c4ccccc4c(=O)c3cc12
photocatalytic hydrogen evolution rate: 0 µmol/h

O=Cc1ccc(-c2ccc(-c3ccc(C=O)s3)s2)s1
photocatalytic hydrogen evolution rate: 1.6 µmol/h

COC(=O)c1ccc(C#N)cc1
photocatalytic hydrogen evolution rate: 0 µmol/h

N#CCc1nc2ccccc2s1
photocatalytic hydrogen evolution rate: 0 µmol/h

Oc1ccc(I)cc1
photocatalytic hydrogen evolution rate: 0 µmol/h

Brc1ccc2ccccc2c1-c1c(Br)ccc2ccccc12
photocatalytic hydrogen evolution rate: 0 µmol/h

Cc1[nH]c(C)c(C=O)c1C=O
photocatalytic hydrogen evolution rate: 0 µmol/h

Fc1c(F)c(-c2c(F)c(F)c(Br)c(F)c2F)c(F)c(F)c1Br
photocatalytic hydrogen evolution rate: 0 µmol/h

c1ccc(-c2ccccn2)nc1
photocatalytic hydrogen evolution rate: 0 µmol/h

CC1(C)c2ccccc2Oc2ccccc21
photocatalytic hydrogen evolution rate: 0.0132 µmol/h

O=Cc1ccc(-c2cncnc2)cc1
photocatalytic hydrogen evolution rate: 2.58 µmol/h

OCc1ccc(-c2ccc(CO)cc2)cc1
photocatalytic hydrogen evolution rate: 0.00977 µmol/h

O=c1cccc[nH]1
photocatalytic hydrogen evolution rate: 0 µmol/h

Oc1ccc2ccccc2c1-c1c(O)ccc2ccccc12
photocatalytic hydrogen evolution rate: 0 µmol/h

c1ccc2c(c1)Cc1ccccc1-2
photocatalytic hydrogen evolution rate: 0 µmol/h

Clc1ccc2ccc(Cl)nc2n1
photocatalytic hydrogen evolution rate: 0.122 µmol/h

O=Cc1ccc(C=O)s1
photocatalytic hydrogen evolution rate: 0.129 µmol/h

OC(c1ccccc1)(c1ccccc1)c1ccccc1
photocatalytic hydrogen evolution rate: 0 µmol/h

c1ccc2c(c1)CCc1ccccc1N2
photocatalytic hydrogen evolution rate: 0 µmol/h

c1ccc2c(c1)C1c3ccccc3C2c2ccccc21
photocatalytic hydrogen evolution rate: 0.0408 µmol/h

COc1cc(C=O)cc(OC)c1O
photocatalytic hydrogen evolution rate: 0 µmol/h

CCN(CCO)c1ccc(N=Nc2ccc([N+](=O)[O-])cc2)cc1
photocatalytic hydrogen evolution rate: 0 µmol/h

Nc1cc(Br)ccc1-c1ccc(Br)cc1N
photocatalytic hydrogen evolution rate: 0.0732 µmol/h

O=Cc1ccc(O)cc1
photocatalytic hydrogen evolution rate: 0.00783 µmol/h

Nc1cccc(N)c1
photocatalytic hydrogen evolution rate: 0 µmol/h

COC(=O)c1ccc2cc(B3OC(C)(C)C(C)(C)O3)ccc2c1
photocatalytic hydrogen evolution rate: 1.49 µmol/h

O=Cc1cccc(O)c1
photocatalytic hydrogen evolution rate: 0 µmol/h
